Results reported in publication PMC6112376, “Comprehensive Analyses and Prioritization of Tox21 10K Chemicals Affecting Mitochondrial Function by in-Depth Mechanistic Studies” (Environmental Health Perspectives, 2018).
Read-outs that look alike come from different tables or passages of the source.

What was measured:
rat primary hepatocytes [1] = test system: rat primary hepatocytes
HepG2 cells [2] = settings: cited from earlier work
HepG2 cells [3] = test: cells; settings: Homo sapiens; for IC50: HepG2, read-out: MMP assays IC50 (µM) HepG2; for Emax: HepG2, read-out: MMP assays efficacy (%) HepG2
rat primary hepatocytes [4] = test: MMP assay in rat primary hepatocytes; settings: for IC50: Rattus norvegicus, Hepatocyte, read-out: MMP assays IC50 (µM) Rat Hepatocytes
[5] = read-out: MMP assays IC50 (µM) qHTS-HepG2
[6] = read-out: MMP assays IC50 (µM), qHTS-HepG2

| Compound | MMP assays efficacy (%) Rat Hepatocytes (rat primary hepatocytes [1]) | MMP assays efficacy (%) qHTS-HepG2 (HepG2 cells [2]) | IC50 (HepG2 cells [2]; [5]) [µM] | IC50 (HepG2 cells [3]) [µM] | Emax (HepG2 cells [3]) [%] | MMP assays IC50 (µM) Rat Hepatocytes (rat primary hepatocytes [4]) | IC50 (rat primary hepatocytes [4]) [µM] | IC50 (HepG2 cells [2]; [6]) [µM] | MMP assays IC50 (µM) qHTS-HepG2 (HepG2 cells [2]) |
| --- | --- | --- | --- | --- | --- | --- | --- | --- | --- |
| ClC1=C(Cl)C2(Cl)C3C4C=CC(C4)C3C1(Cl)C2(Cl)Cl (stereo not drawn) [Aldrin] | inactive | -86±11% | 31.2 ± 7.21 | 39.8 | 106 | inactive |  |  |  |
| CC1(C)[C@H](C(=O)O[C@H](C#N)c2cccc(Oc3ccccc3)c2)[C@@H]1C=C(Br)Br [Deltamethrin] | -65±42% | -75±5% | 45.9 ± 17.9 | 50.1 | 93 |  | 39.8 ± 14.2 |  |  |
| C(=NC1CCCCC1)=NC1CCCCC1 [Dicyclohexylcarbodiimide] | inactive | -69±18% | 0.3 ± 0.2 | 0.0178 | 39 | inactive |  |  |  |
| Oc1c(Cl)cc(Cl)c2cccnc12 [CHLOROXINE] | inactive | -75±22% | 10.6 ± 1.22 | 9.75 | 99 | inactive |  |  |  |
| Nc1ccc(N)c2ccccc12 [1,4-Naphthalenediamine] | -44±17% | -88±2% | 0.2 ± 0.08 | 2 | 109 |  | 22.7 ± 8.75 |  |  |
| CC1(C)CCC(C)(C)c2cc(NC(=O)c3ccc(C(=O)O)cc3)ccc21 [Tamibarotene] | -75±57% | -128±10% |  | 13.8 | 95 |  | 9.06 ± 6.66 | 25.7 ± 1.05 |  |
| CC(C)=CCC1=C(O)C(=O)c2ccccc2C1=O [Lapachol] | inactive | -117±24% |  | 31.6 | 113 | inactive |  | 26.1 ± 1.7 |  |
| Nc1ccc(N)cc1 [1,4-Benzenediamine] | inactive | -85±6% | 3.28 ± 0.42 | 2.18 | 71 | inactive |  |  |  |
| CCCN(CCC)c1c([N+](=O)[O-])cc(C(F)(F)F)c(N)c1[N+](=O)[O-] [Prodiamine] | -95±8% | -85±11% |  | 8.91 | 93 |  | 25.4 ± 11.7 | 4.84 ± 0.56 |  |
| CCC(C)(c1ccc(O)cc1)c1ccc(O)cc1 [Bisphenol B] | -79±17% | -117±22% | 10.7 ± 2.48 | 10 | 122 |  | 21.8 ± 8.6 |  |  |
| Nc1ccc(/N=N/c2ccc(N)cc2)cc1 [4,4'-Diaminoazobenzene] | -50±40% | -86±5% | 10.5 ± 3.59 | 5.62 | 87 |  | 26.6 ± 12.5 |  |  |
| CCCCCCCC(=O)Oc1c(Br)cc(C#N)cc1Br [Bromoxynil octanoate] | -38±2% | -109±13% | 15.3 ± 5.08 | 31.6 | 125 |  | 28.6 ± 22.7 |  |  |
| O=C(NC(=O)c1c(F)cccc1F)Nc1cc(Cl)c(OC(F)(F)C(F)C(F)(F)F)cc1Cl (stereo not drawn) [Lufenuron] | -103±8% | -119±18% |  | 14.1 | 100 |  | 45 ± 7.29 | 7.65 ± 0.7 |  |
| CCc1oc2ccccc2c1C(=O)c1cc(Br)c(O)c(Br)c1 [Benzbromarone] | -82±50% | -138±3% | 7.22 ± 1.24 | 13.8 | 107 |  | 4.91 ± 1.79 |  |  |
| Clc1ccc(C(c2ccccc2Cl)C(Cl)Cl)cc1 (stereo not drawn) [o,p'-DDD] | -45±27% | -112±11% |  | 19.4 | 151 |  | 24.2 ± 14.7 | 19.8 ± 0.94 |  |
| O=C(N/N=C/c1ccc([N+](=O)[O-])o1)c1ccc(O)cc1 [Nifuroxazide] | -91±23% | -89±9% |  | 2.34 | 113 |  | 6.71 ± 1.54 | 1.57 ± 0.3 |  |
| CC(=O)Oc1ccc(C(c2ccc(OC(C)=O)cc2)c2ccccn2)cc1 [Bisacodyl] | -73±12% | -67±5% | 14.8 ± 3.63 | 7.74 | 95 |  | 18.4 ± 13 |  |  |
| CCc1ccccc1O [Compound 2-Ethylphenol] | inactive | inactive |  | 15.8 | 72 | inactive |  |  | inactive |
| CCCCCCCCSC(=O)Oc1cc(Cl)nnc1-c1ccccc1 [Pyridate] | -59±19% | -97±17% |  | 35.5 | 44 |  | 50.5 ± 8.18 | 33.1 ± 4.58 |  |
| O=C=Nc1ccc(Cl)cc1 [4-Chlorophenyl isocyanate] | -98±7% | -110±18% | 0.27 ± 0.11 | 0.71 | 99 |  | 1.56 ± 0.39 |  |  |
| O=S(=O)(c1ccc(Cl)cc1)c1cc(Cl)c(Cl)cc1Cl [Tetradifon] | -77±25% | -98±2% |  | 17.8 | 96 |  | 12.1 ± 6.57 | 15.3 ± 7.43 |  |
| CC(=O)Nc1ccc2c(c1)Cc1ccccc1-2 [Compound 2-Acetylaminofluorene] | inactive | -63±5% | 36.3 ± 10.5 | 31.6 | 46 | inactive |  |  |  |
| CCC(C)(C)c1ccc(O)cc1 [4-(2-Methylbutan-2-yl)phenol] | inactive | -95±13% | 22.7 ± 3.07 | 35.5 | 96 | inactive |  |  |  |
| C#C[C@]1(OC(C)=O)CC[C@H]2[C@@H]3CCC4=C[C@@H](OC(C)=O)CC[C@@H]4[C@H]3CC[C@@]21C [Ethynodiol diacetate] | inactive | -62±16% | 15.4 ± 0.84 | 21.8 | 98 | inactive |  |  |  |
| Oc1ccccc1-c1ccccc1 [Compound 2-Phenylphenol] | -75±20% | -97±7% | 17.9 ± 1.41 | 28.2 | 108 |  | 53.2 ± 4.32 |  |  |
| CCCSP(=O)(OCC)Oc1ccc(Br)cc1Cl (stereo not drawn) [Profenofos] | -61±47% | -92±20% |  | 6.15 | 84 |  | 13.2 ± 3.19 | 2.54 ± 1.84 |  |
| C=C(C)CN(CC)c1c([N+](=O)[O-])cc(C(F)(F)F)cc1[N+](=O)[O-] [Ethalfluralin] | inactive | -57±4% | 43.3 ± 17.6 | 44.7 | 68 | inactive |  |  |  |
